Where a name gives a salt, the structure may show the parent alone.
Tests used:
[1] = target: activated human C1 (Homo sapiens, UniProt P09871); assay: Test Code 026 (C1 inhibitor): protection of fluid phase human C2 from activated human C1 in the presence of C4; format: biochemical; conditions: serial twofold dilution assay; higher well number indicates higher activity
[2] = tested on: complement; assay: Guinea Pig Intraperitoneal Test (GPIP): serum complement activity after i.p. dosing; format: in vivo; conditions: 200 mg/kg i.p.; for In vivo Activity Guinea Pigs Intraperitoneal % Lowering, 30 minutes: blood 30 minutes after injection; for In vivo Activity Guinea Pigs Intraperitoneal % Lowering, 60 minutes: blood 60 minutes after injection; for In vivo Activity Guinea Pigs Intraperitoneal % Lowering, 120 minutes: blood 120 minutes after injection
Procedure: (§1) An active inhibitor protects C2 from C1 and C4; (ii) Test Code 036 (C-Shunt inhibitor)--In this test human erythrocytes rendered fragile are lysed in autologous serum via the shunt pathway activated by cobra venom factor in the presence of appropriate dilutions of the test compound. Inhibition of the shunt pathway results in failure of lysis; (iii) Cap 50 Test--Here, appropriate amounts of the test compound are added to a pool of guinea pig serum in vitro, after which the complement level is determined in undiluted serum by the serum capillary tube assay of U.S. Pat. No. 3,876,376. The concentration of compound inhibiting 50% is reported; and (iv) Guinea Pig Intraperitoneal Test (GPIP)--Guinea pigs weighing about 300 g are dosed intraperitoneally (i.p.) with 200 mg/kg of the test compound dissolved in saline and adjusted to pH 7-8. Approximately 0.4 ml blood samples, taken by orbital sinus puncture 30 minutes and one hour after injections, are collected directly into centrifuge tubes; 5 ml blood samples, taken by decapitation 2 hours after inJection, are collected directly into diSPo® beakers. The samples were allowed to clot, centrifuged, and the resultant sera were assayed for complement activity using the capillary complement assay. Percent inhibition is calculated by comparison with simultaneous controls. The results of the GPIP appear in Table I together with results of Test Code 026, 036 and Cap 50.

[3] = tested on: hereditary angioneurotic edema; conditions: literature report; cited from earlier work
[4] = tested on: complement system; conditions: literature report; cited from earlier work
[5] = tested on: shunt pathway; assay: Test Code 036 (C-Shunt inhibitor): lysis of fragile human erythrocytes in autologous serum via shunt pathway activated by cobra venom factor; format: cell-based; conditions: serial twofold dilution assay; higher well number indicates higher activity
Procedure: as §1, with “The results of the GPIP appear in Table I together with results of Test Code 026, 036 and Cap 50.” left out

O=C(Nc1cc(S(=O)(=O)[O-])cc2cccc(S(=O)(=O)[O-])c12)Nc1cc(S(=O)(=O)[O-])cc2cccc(S(=O)(=O)[O-])c12.[Na+].[Na+].[Na+].[Na+] [8,8'-Ureylenedi-1,6-naphthalenedisulfonic acid, tetrasodium salt]
In vitro Activity C1 026 Wells [1]: +3 Wells

O=C(Nc1cc(S(=O)(=O)[O-])cc2cc(S(=O)(=O)[O-])cc(S(=O)(=O)[O-])c12)Nc1cc(S(=O)(=O)[O-])cc2cc(S(=O)(=O)[O-])cc(S(=O)(=O)[O-])c12.[Na+].[Na+].[Na+].[Na+].[Na+].[Na+] [8,8'-Ureylenedi-1,3,6-naphthalenetrisulfonic acid, hexasodium salt]
In vitro Activity C1 026 Wells [1]: +5 Wells | In vivo Activity Guinea Pigs Intraperitoneal % Lowering, 30 minutes [2]: 25% | In vivo Activity Guinea Pigs Intraperitoneal % Lowering, 60 minutes [2]: 61% | In vivo Activity Guinea Pigs Intraperitoneal % Lowering, 120 minutes [2]: 65%

O=C(Nc1ccc(S(=O)(=O)[O-])c2ccc(S(=O)(=O)[O-])cc12)Nc1ccc(S(=O)(=O)[O-])c2ccc(S(=O)(=O)[O-])cc12.[Na+].[Na+].[Na+].[Na+] [4,4'-Ureylenedi-1,6-naphthalenedisulfonic acid, tetrasodium salt]
In vitro Activity C1 026 Wells [1]: +3 Wells

O=C(Nc1cc(S(=O)(=O)O)cc2cc(S(=O)(=O)O)cc(OS(=O)(=O)c3ccccc3)c12)Nc1cc(S(=O)(=O)O)cc2cc(S(=O)(=O)O)cc(OS(=O)(=O)c3ccccc3)c12 [4,4'-Ureylenebis(5-hydroxy-2,7-naphthalenedisulfonic acid), tetrasodium salt dibenzenesulfonate]
In vitro Activity C1 026 Wells [1]: +3 Wells

O=C(Nc1cc(S(=O)(=O)[O-])cc2cc(S(=O)(=O)[O-])ccc12)Nc1cc(S(=O)(=O)[O-])cc2cc(S(=O)(=O)[O-])ccc12.[Na+].[Na+].[Na+].[Na+] [4,4'-Ureylenedi-2,7-naphthalenedisulfonic acid, tetrasodium salt]
In vitro Activity C1 026 Wells [1]: +3 Wells

O=C(Nc1ccc(S(=O)(=O)[O-])c2cc(S(=O)(=O)[O-])cc(S(=O)(=O)[O-])c12)Nc1ccc(S(=O)(=O)[O-])c2cc(S(=O)(=O)[O-])cc(S(=O)(=O)[O-])c12.[Na+].[Na+].[Na+].[Na+].[Na+].[Na+] [8,8'-Ureylenedi-1,3,5-naphthalenetrisulfonic acid, hexasodium salt]
In vivo Activity Guinea Pigs Intraperitoneal % Lowering, 30 minutes [2]: 92% | In vivo Activity Guinea Pigs Intraperitoneal % Lowering, 60 minutes [2]: 92% | In vivo Activity Guinea Pigs Intraperitoneal % Lowering, 120 minutes [2]: 94%

NCCCCCC(=O)O [epsilon-aminocaproic acid]
treatment of hereditary angioneurotic edema [3]: used with success

O=C(Nc1cc2ccc(S(=O)(=O)[O-])cc2cc1S(=O)(=O)[O-])Nc1cc2ccc(S(=O)(=O)[O-])cc2cc1S(=O)(=O)[O-].[Na+].[Na+].[Na+].[Na+] [3,3'-Ureylenedi-2,7-naphthalenedisulfonic acid, tetrasodium salt]
In vitro Activity C1 026 Wells [1]: +3 Wells

heparin
anti-complementary effect [4]: anti-complementary effect

O=C(Nc1ccc2c(S(=O)(=O)[O-])cc(S(=O)(=O)[O-])cc2c1)Nc1ccc2c(S(=O)(=O)[O-])cc(S(=O)(=O)[O-])cc2c1.[Na+].[Na+].[Na+].[Na+] [6,6'-Ureylenedi-1,3-naphthalenedisulfonic acid, tetrasodium salt]
In vitro Activity C1 026 Wells [1]: +3 Wells

O=C(Nc1cc2c(O)cc(S(=O)(=O)[O-])cc2cc1S(=O)(=O)[O-])Nc1cc2c(O)cc(S(=O)(=O)[O-])cc2cc1S(=O)(=O)[O-].[Na+].[Na+].[Na+].[Na+] [3,3'-Ureylenebis(5-hydroxy-2,7-naphthalenedisulfonic acid), tetrasodium salt]
In vitro Activity C1 026 Wells [1]: +4 Wells | In vivo Activity Guinea Pigs Intraperitoneal % Lowering, 30 minutes [2]: 4% | In vivo Activity Guinea Pigs Intraperitoneal % Lowering, 60 minutes [2]: 1% | In vivo Activity Guinea Pigs Intraperitoneal % Lowering, 120 minutes [2]: 28%

O=C(Nc1ccc2cc(S(=O)(=O)O)cc(O)c2c1)Nc1ccc2cc(S(=O)(=O)O)cc(O)c2c1 [7,7'-ureylenebis(1-hydroxy-3-naphthalenesulfonic acid)]
In vitro Activity C1 026 Wells [1]: +2 Wells

O=C(Nc1ccc2c(O)cc(S(=O)(=O)O)cc2c1)Nc1ccc2c(O)cc(S(=O)(=O)O)cc2c1 [6,6'-ureylenebis(1-hydroxy-3-naphthalenesulfonic acid)]
In vitro Activity C1 026 Wells [1]: +1 Wells

NC[C@H]1CC[C@H](C(=O)O)CC1 [tranexamic acid]
treatment of hereditary angioneurotic edema [3]: used with success

O=C(Nc1ccc(S(=O)(=O)[O-])c2ccccc12)Nc1ccc(S(=O)(=O)[O-])c2ccccc12.[Na+].[Na+] [4,4'-Ureylenedi-1-naphthalenesulfonic acid, disodium salt]
In vitro Activity C1 026 Wells [1]: +2 Wells

O=C(Nc1cc(S(=O)(=O)[O-])c2cc([N+](=O)[O-])cc(S(=O)(=O)[O-])c2c1)Nc1cc(S(=O)(=O)[O-])c2cc([N+](=O)[O-])cc(S(=O)(=O)[O-])c2c1.[Na+].[Na+].[Na+].[Na+] [3,3'-Ureylenebis(7-nitro-1,5-naphthalenedisulfonic acid), tetrasodium salt]
In vitro Activity C1 026 Wells [1]: +3 Wells

O=S(=O)([O-])c1cc(NC(=S)Nc2cc(S(=O)(=O)[O-])cc3cc(S(=O)(=O)[O-])cc(S(=O)(=O)[O-])c23)c2c(S(=O)(=O)[O-])cc(S(=O)(=O)[O-])cc2c1.[Na+].[Na+].[Na+].[Na+].[Na+].[Na+] [8,8'-(2-Thioureylene)di-1,3,6-naphthalenetrisulfonic acid, hexasodium salt]
In vitro Activity C1 026 Wells [1]: +5 Wells | In vivo Activity Guinea Pigs Intraperitoneal % Lowering, 30 minutes [2]: 41% | In vivo Activity Guinea Pigs Intraperitoneal % Lowering, 60 minutes [2]: 20% | In vivo Activity Guinea Pigs Intraperitoneal % Lowering, 120 minutes [2]: 42%

O=C(Nc1cc(S(=O)(=O)[O-])cc2ccc(S(=O)(=O)[O-])cc12)Nc1cc(S(=O)(=O)[O-])cc2ccc(S(=O)(=O)[O-])cc12.[Na+].[Na+].[Na+].[Na+] [4,4'-Ureylenedi-2,6-naphthalenedisulfonic acid, tetrasodium salt]
In vitro Activity C1 026 Wells [1]: +2 Wells

Nc1ccc2cc(S(=O)(=O)[O-])cc(O)c2c1N=Nc1ccc(NC(=O)Nc2ccc(N=Nc3c(N)ccc4cc(S(=O)(=O)[O-])cc(O)c34)c(S(=O)(=O)[O-])c2)cc1S(=O)(=O)[O-].[Na+].[Na+].[Na+].[Na+] [chlorazol fast pink, 3,3'-ureylenebis[6-(2-amino-8-hydroxy-6-sulfo-1-naphthylazo)benzenesulfonic acid], tetrasodium salt]
anti-complementary effect [4]: anti-complementary effect

O=C(Nc1cc(S(=O)(=O)[O-])c2cc(S(=O)(=O)[O-])cc(S(=O)(=O)[O-])c2c1)Nc1cc(S(=O)(=O)[O-])c2cc(S(=O)(=O)[O-])cc(S(=O)(=O)[O-])c2c1.[Na+].[Na+].[Na+].[Na+].[Na+].[Na+] [7,7'-Ureylenedi-1,3,5-naphthalenetrisulfonic acid, hexasodium salt]
In vitro Activity C1 026 Wells [1]: +6 Wells | In vitro Activity C-Shunt Inhibition 036 Wells [5]: +1 Wells

Reference: US4599203A, “Multisulfonated naphthalene ureas useful as complement inhibitors” (American Cyanamid Company, priority 1984, dated 1986)
